Source: the supplement of paper PMC11451515

Columns and labels:
Test in all cases: cell viability relative to DMSO control; higher = less cytotoxic
Details in all cases: 48 h
[1] = tested on: P12-Ichikawa
Summary of the method: (§1)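 Leukemia cells (NOMO1 or SEM, 500 cells/well; P12-Ichikawa, 1000 cells/well) were seeded in 5 μl in 1536-well plates after at least four passages of adaptation to each medium. They received library compounds in DMSO by pin dosing, 11 threefold points from 47 μM to 0.79 nM. Luminescence with CellTiter-Glo One was read after 48 h at 37°C. Viability is stated per plate relative to DMSO wells, with cell-free wells as background.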

[2] = tested on: NOMO1
Summary of the method: as §1

[3] = tested on: SEM cells
Summary of the method: as §1

COC1=C(N2CCNC(C)C2)C(=CC3=C1N(\C=C(C(O)=O)/C3=O)C4CC4)F (centres undefined)
cell viability [%]
Details | [1] | [2] | [3]
HPLM + 10% dialyzed FBS, 0.000781 µM | 101 | 89.4 | 74.8
HPLM + 10% dialyzed FBS, 0.00234 µM | 105 | 82.7 | 88.8
HPLM + 10% dialyzed FBS, 0.00702 µM | 112 | 103 | 83.1
HPLM + 10% dialyzed FBS, 0.0211 µM | 101 | 115 | 84.2
HPLM + 10% dialyzed FBS, 0.0632 µM | 91.1 | 105 | 51.8
HPLM + 10% dialyzed FBS, 0.19 µM | 111 | 123 | 66.3
HPLM + 10% dialyzed FBS, 0.569 µM | 106 | 103 | 55.2
HPLM + 10% dialyzed FBS, 1.71 µM | 106 | 117 | 51.2
HPLM + 10% dialyzed FBS, 5.12 µM | 98.1 | 95.2 | 13.9
HPLM + 10% dialyzed FBS, 15.4 µM | 101 | 92.8 | 21.6
HPLM + 10% dialyzed FBS, 46.1 µM | 87.5 | 77.2 | 18.1
RPMI 5 mM glucose + 10% FBS, 0.000781 µM | 102 | 100 | 98
RPMI 5 mM glucose + 10% FBS, 0.00234 µM | 105 | 87.7 | 95.1
RPMI 5 mM glucose + 10% FBS, 0.00702 µM | 108 | 88.6 | 116
RPMI 5 mM glucose + 10% FBS, 0.0211 µM | 99.6 | 99.5 | 96
RPMI 5 mM glucose + 10% FBS, 0.0632 µM | 88.2 | 96 | 53.2
RPMI 5 mM glucose + 10% FBS, 0.19 µM | 105 | 96.8 | 92.3
RPMI 5 mM glucose + 10% FBS, 0.569 µM | 100 | 96.6 | 58.5
RPMI 5 mM glucose + 10% FBS, 1.71 µM | 106 | 104 | 61.7
RPMI 5 mM glucose + 10% FBS, 5.12 µM | 17.8 | 20.3 | 44.8
RPMI 5 mM glucose + 10% FBS, 15.4 µM | 96.7 | 111 | 37.9
RPMI 5 mM glucose + 10% FBS, 46.1 µM | 76.9 | 103 | 25.6
RPMI 5 mM glucose + 10% dialyzed FBS, 0.000781 µM | 94.5 | 97.6 | 73.7
RPMI 5 mM glucose + 10% dialyzed FBS, 0.00234 µM | 101 | 86.9 | 73.3
RPMI 5 mM glucose + 10% dialyzed FBS, 0.00702 µM | 99.2 | 98.2 | 79.9
RPMI 5 mM glucose + 10% dialyzed FBS, 0.0211 µM | 104 | 94.3 | 83.1
RPMI 5 mM glucose + 10% dialyzed FBS, 0.0632 µM | 95.8 | 100 | 48.8
RPMI 5 mM glucose + 10% dialyzed FBS, 0.19 µM | 98.1 | 110 | 60.2
RPMI 5 mM glucose + 10% dialyzed FBS, 0.569 µM | 99.9 | 94 | 48.7
RPMI 5 mM glucose + 10% dialyzed FBS, 1.71 µM | 104 | 99.3 | 38.5
RPMI 5 mM glucose + 10% dialyzed FBS, 5.12 µM | 101 | 74.2 | 13.4
RPMI 5 mM glucose + 10% dialyzed FBS, 15.4 µM | 99.8 | 99.1 | 26.6
RPMI 5 mM glucose + 10% dialyzed FBS, 46.1 µM | 78.6 | 95.8 | 12.2
